Here are results for 25 compounds from patent US11345708B2, “Substituted imidazo[1,2-a]imidazoles as modulators of metabotropic glutamate receptor 4 activity” (Hoffmann-La Roche Inc., priority 2017, dated 2022).

Molecules are shown by their SMILES.

By EC50 is commonly meant the concentration giving half of the maximal effect.

For the first assay, the target named is T1, human mGlu4 receptor (Homo sapiens, UniProt Q14833).
T1 construct: expressed in transfected cells; host or cells: HEK-293 (monoclonal, stably transfected)
T1 sequence (Q14833 33-912): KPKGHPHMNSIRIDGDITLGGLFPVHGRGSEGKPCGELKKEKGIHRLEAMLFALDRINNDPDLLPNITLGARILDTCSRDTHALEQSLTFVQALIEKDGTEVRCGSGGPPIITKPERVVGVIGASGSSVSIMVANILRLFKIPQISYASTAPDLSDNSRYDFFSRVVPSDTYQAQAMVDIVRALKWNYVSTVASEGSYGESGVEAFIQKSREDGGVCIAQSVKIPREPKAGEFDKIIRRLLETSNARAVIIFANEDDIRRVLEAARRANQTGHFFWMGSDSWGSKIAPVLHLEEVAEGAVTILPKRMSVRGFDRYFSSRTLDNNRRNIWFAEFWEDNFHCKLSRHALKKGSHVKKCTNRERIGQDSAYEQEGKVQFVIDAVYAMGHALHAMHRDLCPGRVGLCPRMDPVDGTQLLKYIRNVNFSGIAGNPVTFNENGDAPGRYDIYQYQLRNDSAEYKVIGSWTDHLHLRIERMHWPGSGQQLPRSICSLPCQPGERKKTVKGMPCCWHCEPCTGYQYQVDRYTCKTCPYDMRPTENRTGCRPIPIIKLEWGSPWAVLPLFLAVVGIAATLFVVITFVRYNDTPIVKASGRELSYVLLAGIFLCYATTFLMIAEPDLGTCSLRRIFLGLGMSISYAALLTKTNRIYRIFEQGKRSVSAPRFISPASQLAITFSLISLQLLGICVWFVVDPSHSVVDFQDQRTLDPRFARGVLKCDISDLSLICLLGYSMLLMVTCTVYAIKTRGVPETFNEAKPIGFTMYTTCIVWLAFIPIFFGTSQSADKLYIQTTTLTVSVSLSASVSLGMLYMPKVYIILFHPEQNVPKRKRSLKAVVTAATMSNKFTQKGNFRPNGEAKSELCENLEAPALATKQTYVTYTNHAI
Put plainly: Ca2+ mobilization in vitro assay on recombinant human mGlu4 expressed in HEK293 cells. The class given is cell-based. The note with it: HEK-293 cells stably expressing human mGlu4; L-AP4 added at EC20; Fluo-4 fluorescence; read-out: EC50 (uM) mGlu4 PAM. The method, then:
Determination of EC50 Values Using a Ca2+ Mobilization In Vitro Assay on Recombinant Human mGlu4 Expressed in HEK293 Cells:
A monoclonal HEK-293 cell line stably transfected with a cDNA encoding for the human mGlu4 receptor was generated; for the work with mGlu4 Positive Allosteric Modulators (PAMs), a cell line with low receptor expression levels and low constitutive receptor activity was selected to allow the differentiation of agonistic versus PAM activity. Cells were cultured according to standard protocols (Freshney, 2000) in Dulbecco's Modified Eagle Medium with high glucose supplemented with 1 mM glutamine, 10% (vol/vol) heat-inactivated bovine calf serum, Penicillin/Streptomycin, 50 μg/ml hygromycin and 15 μg/ml blasticidin (all cell culture reagents and antibiotics from Invitrogen, Basel, Switzerland).
About 24 hrs before an experiment, 5×10^4 cells/well were seeded in poly-D-lysine coated, black/clear-bottomed 96-well plates. The cells were loaded with 2.5 μM Fluo-4 AM in loading buffer (1×HBSS, 20 mM HEPES) for 1 hr at 37° C. and washed five times with loading buffer. The cells were transferred into a Functional Drug Screening System 7000 (Hamamatsu, Paris, France), and 11 half logarithmic serial dilutions of test compound at 37° C. were added and the cells were incubated for 10-30 min. with on-line recording of fluorescence. Following this pre-incubation step, the agonist (2S)-2-amino-4-phosphonobutanoic acid (L-AP4) was added to the cells at a concentration corresponding to EC20 with on-line recording of fluorescence; in order to account for day-to-day variations in the responsiveness of cells, the EC20 of L-AP4 was determined immediately ahead of each experiment by recording of a full dose-response curve of L-AP4.
Responses were measured as peak increase in fluorescence minus basal (i.e. fluorescence without addition of L-AP4), normalized to the maximal stimulatory effect obtained with saturating concentrations of L-AP4. Graphs were plotted with the % maximal stimulatory using XLfit, a curve fitting program that iteratively plots the data using Levenburg Marquardt algorithm. The single site competition analysis equation used was y=A+((B−A)/(1+((x/C)D))), where y is the % maximal stimulatory effect, A is the minimum y, B is the maximum y, C is the EC50, x is the log 10 of the concentration of the competing compound and D is the slope of the curve (the Hill Coefficient). From these curves the EC50 (drug concentration at which 50% of the maximal receptor activation was achieved), the Hill coefficient as well as the maximal response in % of the maximal stimulatory effect obtained with saturating concentrations of L-AP4 were calculated (see Fig. 1).
A depression of the signal observed after addition of the EC20 concentration of L-AP4 was indicative of an inhibitory activity of the test compound.
(A change in cytosolic calcium serves as a functional read-out for many receptors and channels.)
For `Cn1cc(-c2cnc3n2C2(CC2)C(=O)N3c2c(F)cc(C#Cc3cccnc3)cc2F)cn1` [Example 37, 1′-(2,6-difluoro-4-(pyridin-3-ylethynyl)phenyl)-5′-(1-methyl-1H-pyrazol-4-yl)spiro[cyclopropane-1,3′-imidazo[1,2-a]imidazol]-2′(1′H)-one], the half-maximal effective concentration (EC50) stood at 0.229 µM. Turning to `O=C1N(c2c(F)cc(C#Cc3ccccc3)cc2F)c2ncc(-c3cncnc3)n2C12CC2` [Example 38, 3-[2,6-Difluoro-4-(2-phenylethynyl)phenyl]-6-(pyrimidin-5-yl)-2,3-dihydrospiro[[1,3]diazolo[1,2-a]imidazole-1,1′-cyclopropane]-2-one], the EC50 amounted to 0.331 µM. Consider `O=C1N(c2c(F)cc(C#Cc3cccnc3)cc2F)c2ncc(-c3cccnc3)n2C12CC2` [Example 39, 1′-(2,6-difluoro-4-(pyridin-3-ylethynyl)phenyl)-5′-(pyridin-3-yl)spiro[cyclopropane-1,3′-imidazo[1,2-a]imidazol]-2′(1′H)-one], for which the EC50 turned out to be 0.566 µM. As for `CC(F)(F)c1ccc(-c2cc(F)c(N3C(=O)C4(CC4)n4c(-c5cc[nH]n5)cnc43)c(F)c2)cc1` [Example 40, 1′-(4′-(1,1-difluoroethyl)-3,5-difluoro-[1,1′-biphenyl]-4-yl)-5′-(1H-pyrazol-3-yl)spiro[cyclopropane-1,3′-imidazo[1,2-a]imidazol]-2′(1′H)-one], the EC50 is 0.206 µM. As for `O=C1N(c2c(F)cc(C#Cc3ccccc3)cc2F)c2ncc(-c3cn[nH]c3)n2C12CC2` [Example 41, 3-[2,6-Difluoro-4-(2-phenylethynyl)phenyl]-6-(1H-pyrazol-4-yl)-2,3-dihydrospiro[[1,3]diazolo[1,2-a]imidazole-1,1′-cyclopropane]-2-one], the EC50 was 0.238 µM.

`O=C1N(c2c(F)cc(N3CCN(CC(F)(F)F)CC3)cc2F)c2ncc(-c3cc[nH]n3)n2C12CC2` [Example 42, 7′-[2,6-difluoro-4-[4-(2,2,2-trifluoroethyl)piperazin-1-yl]phenyl]-3′-(1H-pyrazol-3-yl)spiro[cyclopropane-1,5′-imidazo[1,2-a]imidazole]-6′-one]: the EC50 was 0.417 µM.

For `O=C(Nc1cc(F)c(N2C(=O)C3(CC3)n3c(-c4cc[nH]n4)cnc32)c(F)c1)c1ccccn1` [Example 43, N-[3,5-difluoro-4-[6′-oxo-3′-(1H-pyrazol-3-yl)spiro[cyclopropane-1,5′-imidazo[1,2-a]imidazole]-7′-yl]phenyl]pyridine-2-carboxamide], the 50% effective concentration (EC50) was determined as 0.015 µM. In the case of `Cn1nccc1-c1cnc2n1C1(CC1)C(=O)N2c1c(F)cc(C#Cc2ccccc2)cc1F` [Example 44, 7′-[2,6-difluoro-4-(2-phenylethynyl)phenyl]-3′-(2-methylpyrazol-3-yl)spiro[cyclopropane-1,5′-imidazo[1,2-a]imidazole]-6′-one], the EC50 was 0.422 µM.

For `Cn1ccc(-c2cnc3n2C2(CC2)C(=O)N3c2c(F)cc(-c3ccc(OC(F)F)cc3)cc2F)n1` [Example 45, 7′-[4-[4-(difluoromethoxy)phenyl]-2,6-difluoro-phenyl]-3′-(1-methylpyrazol-3-yl)spiro[cyclopropane-1,5′-imidazo[1,2-a]imidazole]-6′-one], the EC50 amounted to 0.621 µM. As to `Cn1nccc1-c1cnc2n1C1(CC1)C(=O)N2c1c(F)cc(C#Cc2cccnc2)cc1F` [Example 46, 7′-[2,6-difluoro-4-[2-(3-pyridyl)ethynyl]phenyl]-3′-(2-methylpyrazol-3-yl)spiro[cyclopropane-1,5′-imidazo[1,2-a]imidazole]-6′-one], the half-maximal effective concentration (EC50) came out at 0.673 µM. As for `Cc1cnc2n1C1(CC1)C(=O)N2c1c(F)cc(C#Cc2ccccc2)cc1F` [Example 47, 3-[2,6-Difluoro-4-(2-phenylethynyl)phenyl]-6-methyl-2,3-dihydrospiro[[1,3]diazolo[1,2-a]imidazole-1,1′-cyclopropane]-2-one], the EC50 came out at 0.181 µM.

On to `Cc1cnc2n1C1(CC1)C(=O)N2c1c(F)cc(NC(=O)c2ccccn2)cc1F` [Example 48, N-[3,5-difluoro-4-(3′-methyl-6′-oxo-spiro[cyclopropane-1,5′-imidazo[1,2-a]imidazole]-7′-yl)phenyl]pyridine-2-carboxamide], for which the EC50 is 0.377 µM.

As for `Cc1cnc2n1C1(CC1)C(=O)N2c1c(F)cc(C#Cc2cccnc2)cc1F` [Example 49, 7′-[2,6-difluoro-4-[2-(3-pyridyl)ethynyl]phenyl]-3′-methyl-spiro[cyclopropane-1,5′-imidazo[1,2-a]imidazole]-6′-one], the EC50 is 0.829 µM. Regarding `O=C1N(c2c(F)cc(C#Cc3ccccc3)cc2F)c2ncc(C3(O)COC3)n2C12CC2` [Example 50, 7′-[2,6-difluoro-4-(2-phenylethynyl)phenyl]-3′-(3-hydroxyoxetan-3-yl)spiro[cyclopropane-1,5′-imidazo[1,2-a]imidazole]-6′-one], the concentration for a half-maximal effect (EC50) is 0.322 µM.

As for `O=C(Nc1cc(F)c(N2C(=O)C3(CC3)n3c(C4(O)COC4)cnc32)c(F)c1)c1ccccn1` [Example 51, N-[3,5-difluoro-4-[3′-(3-hydroxyoxetan-3-yl)-6′-oxo-spiro[cyclopropane-1,5′-imidazo[1,2-a]imidazole]-7′-yl]phenyl]pyridine-2-carboxamide], the EC50 came out at 0.363 µM.

For `CC(C)(C)c1cnn(-c2cc(F)c(N3C(=O)C4(CC4)n4c(C5(O)COC5)cnc43)c(F)c2)c1` [Example 52, 7′-[4-(4-tert-butylpyrazol-1-yl)-2,6-difluoro-phenyl]-3′-(3-hydroxyoxetan-3-yl)spiro[cyclopropane-1,5′-imidazo[1,2-a]imidazole]-6′-one], the EC50 amounted to 0.905 µM. As for `CS(=O)(=O)c1cnc2n1C1(CC1)C(=O)N2c1c(F)cc(C#Cc2ccccc2)cc1F` [Example 53, 3′-[2,6-Difluoro-4-(2-phenylethynyl)phenyl]-6′-methanesulfonyl-2′,3′-dihydrospiro[cyclopropane-1,1′-imidazo[1,2-a][1,3]diazole]-2′-one], the EC50 was found to be 0.69 µM.

Regarding `O=C1CCN1c1cnc2n1C1(CC1)C(=O)N2c1c(F)cc(C#Cc2cccnc2)cc1F` [Example 54, 7′-[2,6-difluoro-4-[2-(3-pyridyl)ethynyl]phenyl]-3′-(2-oxoazetidin-1-yl)spiro[cyclopropane-1,5′-imidazo[1,2-a]imidazole]-6′-one], the EC50 worked out at 0.808 µM.

As for `O=C1N(c2c(F)cc(C#Cc3ccccc3)cc2F)c2ncc(CO)n2C12CC2` [Example 55, 7′-[2,6-difluoro-4-(2-phenylethynyl)phenyl]-3′-(hydroxymethyl)spiro[cyclopropane-1,5′-imidazo[1,2-a]imidazole]-6′-one], the EC50 turned out to be 0.294 µM.

On to `O=C(Nc1cc(F)c(N2C(=O)C3(CC3)n3c(CO)cnc32)c(F)c1)c1ccccn1` [Example 56, N-[3,5-difluoro-4-[3′-(hydroxymethyl)-6′-oxo-spiro[cyclopropane-1,5′-imidazo[1,2-a]imidazole]-7′-yl]phenyl]pyridine-2-carboxamide], for which the EC50 turned out to be 0.834 µM. Same read-out and setting: as for `CC(O)c1cnc2n1C1(CC1)C(=O)N2c1c(F)cc(NC(=O)c2ccccn2)cc1F` (stereo not shown) [Example 57, N-[3,5-difluoro-4-[3′-(1-hydroxyethyl)-6′-oxo-spiro[cyclopropane-1,5′-imidazo[1,2-a]imidazole]-7′-yl]phenyl]pyridine-2-carboxamide], the figure is 0.572 µM.

As to `CC(O)c1cnc2n1C1(CC1)C(=O)N2c1c(F)cc(-n2cc(C(C)(C)C)cn2)cc1F` (stereo not shown) [Example 58, 7′-[4-(4-tert-butylpyrazol-1-yl)-2,6-difluoro-phenyl]-3′-(1-hydroxyethyl)spiro[cyclopropane-1,5′-imidazo[1,2-a]imidazole]-6′-one], the 50% effective concentration (EC50) is 0.842 µM.

Regarding `CC(O)c1cnc2n1C1(CC1)C(=O)N2c1c(F)cc(C#Cc2ccccc2)cc1F` (stereo not shown) [Example 59, 7′-[2,6-difluoro-4-(2-phenylethynyl)phenyl]-3′-(1-hydroxyethyl)spiro[cyclopropane-1,5′-imidazo[1,2-a]imidazole]-6′-one], the EC50 was 0.824 µM.

In the next assay the test system is rodent.
Assay: not given
The note with it: 6-OHDA rodent model of PD; cited from earlier work.
For `N[C@@H](CCP(=O)(O)O)C(=O)O` [L-AP4, (2S)-2-amino-4-phosphonobutanoic acid], the neuroprotection result was “neuroprotective effects”.

The subject of another assay is mice.
Assay: not given
The note with it: mice treated with MPTP; cited from earlier work.
For the compound `O=C(Nc1ccccc1)C12CC1/C(=N\O)c1ccccc1O2` (single isomer, unassigned; (-)) [(−)-PHCCC], the nigrostriatal degeneration result was “reduced nigrostriatal degeneration”.
